From publication PMC9082844 (Journal of Biomedical Science, 2022)
Read-outs that look alike come from different tables or passages of the source.

Experiments:
KDM4A = target: T1, KDM4A (Homo sapiens, UniProt O75164); experiment: FDH-coupled demethylase assay, KDM4A; format: biochemical; settings: pyrocatechol analogue; read-out: inhibitory effect
T1 sequence (O75164 1-1064): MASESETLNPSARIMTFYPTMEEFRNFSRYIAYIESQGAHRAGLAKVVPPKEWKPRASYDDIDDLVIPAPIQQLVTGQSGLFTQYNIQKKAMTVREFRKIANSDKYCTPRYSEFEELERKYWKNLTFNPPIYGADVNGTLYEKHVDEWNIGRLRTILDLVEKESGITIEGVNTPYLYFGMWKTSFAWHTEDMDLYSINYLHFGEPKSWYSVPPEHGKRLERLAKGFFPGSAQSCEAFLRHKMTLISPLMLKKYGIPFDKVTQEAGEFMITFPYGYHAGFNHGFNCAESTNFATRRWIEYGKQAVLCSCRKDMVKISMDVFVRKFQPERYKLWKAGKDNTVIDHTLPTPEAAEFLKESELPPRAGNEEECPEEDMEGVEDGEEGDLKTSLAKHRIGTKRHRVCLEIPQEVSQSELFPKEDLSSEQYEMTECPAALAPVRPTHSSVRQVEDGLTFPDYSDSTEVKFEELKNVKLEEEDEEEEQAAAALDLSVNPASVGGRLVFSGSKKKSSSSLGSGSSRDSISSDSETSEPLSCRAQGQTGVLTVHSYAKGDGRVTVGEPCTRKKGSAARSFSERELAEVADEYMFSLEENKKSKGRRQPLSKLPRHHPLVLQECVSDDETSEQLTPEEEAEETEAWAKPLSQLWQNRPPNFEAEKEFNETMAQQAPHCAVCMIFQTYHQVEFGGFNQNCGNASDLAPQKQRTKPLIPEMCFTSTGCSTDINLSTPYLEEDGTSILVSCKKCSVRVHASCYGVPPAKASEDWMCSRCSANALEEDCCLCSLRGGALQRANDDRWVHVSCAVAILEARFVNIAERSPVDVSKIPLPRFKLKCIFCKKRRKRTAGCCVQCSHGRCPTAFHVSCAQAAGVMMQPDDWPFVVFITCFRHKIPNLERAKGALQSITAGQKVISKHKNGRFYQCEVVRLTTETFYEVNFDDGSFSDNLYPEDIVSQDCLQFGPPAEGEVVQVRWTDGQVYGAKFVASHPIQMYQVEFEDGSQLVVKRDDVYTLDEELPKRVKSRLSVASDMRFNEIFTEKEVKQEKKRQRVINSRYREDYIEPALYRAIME

JMJD2E/KDM4E = system: JMJD2E/KDM4E; design: method as in PMID 24260783, PMID 21124847; settings: in vitro; cited from earlier work
KDM4B [1] = target: T2, KDM4B (Homo sapiens, UniProt O94953); experiment: FDH-coupled demethylase assay, KDM4B; format: biochemical
T2 sequence (O94953 1-1096): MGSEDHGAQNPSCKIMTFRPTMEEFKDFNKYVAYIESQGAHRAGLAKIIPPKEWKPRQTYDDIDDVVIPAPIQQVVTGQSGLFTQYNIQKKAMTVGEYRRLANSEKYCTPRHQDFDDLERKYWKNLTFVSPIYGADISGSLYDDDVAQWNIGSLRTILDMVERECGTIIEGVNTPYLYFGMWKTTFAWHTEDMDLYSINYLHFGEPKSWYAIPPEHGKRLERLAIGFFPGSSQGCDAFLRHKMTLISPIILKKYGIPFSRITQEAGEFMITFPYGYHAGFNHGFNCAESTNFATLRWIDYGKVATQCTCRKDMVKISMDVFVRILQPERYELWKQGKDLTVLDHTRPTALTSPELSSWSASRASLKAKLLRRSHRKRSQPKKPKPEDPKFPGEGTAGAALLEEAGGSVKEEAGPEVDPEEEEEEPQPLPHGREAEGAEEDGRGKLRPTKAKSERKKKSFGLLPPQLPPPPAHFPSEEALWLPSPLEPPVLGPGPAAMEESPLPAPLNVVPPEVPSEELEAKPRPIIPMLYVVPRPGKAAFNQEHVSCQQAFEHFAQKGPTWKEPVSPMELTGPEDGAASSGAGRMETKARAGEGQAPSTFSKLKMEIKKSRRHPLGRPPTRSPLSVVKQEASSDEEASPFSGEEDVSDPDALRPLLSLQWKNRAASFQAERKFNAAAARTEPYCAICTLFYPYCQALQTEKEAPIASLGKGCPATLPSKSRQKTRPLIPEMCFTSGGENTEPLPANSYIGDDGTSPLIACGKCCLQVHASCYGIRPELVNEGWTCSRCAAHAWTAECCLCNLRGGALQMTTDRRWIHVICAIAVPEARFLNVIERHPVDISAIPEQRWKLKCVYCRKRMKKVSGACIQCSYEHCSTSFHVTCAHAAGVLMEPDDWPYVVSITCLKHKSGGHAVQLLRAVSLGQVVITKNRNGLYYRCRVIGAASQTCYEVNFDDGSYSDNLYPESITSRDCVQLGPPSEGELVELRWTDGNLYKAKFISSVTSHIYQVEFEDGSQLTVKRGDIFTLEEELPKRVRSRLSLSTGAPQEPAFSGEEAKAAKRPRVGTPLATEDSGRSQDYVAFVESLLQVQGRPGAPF
Method: All the reagents were stored at -30 °C.

KDM4B [2] = target: T2, KDM4B; experiment: H3 demethylation with histones as substrate, Western blot, KDM4B; format: biochemical; settings: 50 μM myricetin (legend also 100 μM inhibitor), 37 °C 30 min
LNCaP cells = experiment: MTT assay, LNCaP; format: cell-based; settings: Homo sapiens, 72 h, 3 days, read-out: IC50, cell viability
Method: (§1) Cells (3 × 10^3) were seeded in a 96-well plate 1 day before the treatment. Cell proliferation was measured by MTT colorimetric assay according to the manufacturer’s instruction (Roche, Indianapolis, IN, USA).
The IC50 value of each drug was determined by treating cells with the drug (0‒160 μM) for three days. For combination evaluation, a twofold serial dilution of each drug and its combination points above and below its IC50 value was used in an array format. Combination index (CI) values were calculated by CompuSyn software. The values of the combination dose–response curve, which represents drug-effect-shift analysis, were normalized to IC50 values of each single molar concentration of drugs (IC50 eq), and the plots were generated by Graphpad Prism 7.
(§2) B H3K9me3 and H3K36me3 levels in myricetin-treated C4-2B cells for 2 days. The H3K9me3, H3K36me3, and H3 signals were detected in cell lysates by western blot analysis. M myricetin

C4-2B = experiment: MTT assay, C4-2B; format: cell-based; settings: 72 h, 3 days, read-out: IC50, proliferation
RWPE-1 = experiment: MTT assay, RWPE-1; format: cell-based; settings: immortalized normal RWPE-1, 3 days
Method: as §1, §2

CWR22Rv1 = experiment: MTT assay, CWR22Rv1; format: cell-based; settings: 3 days
Method: as §1, §2

C4-2B cells = experiment: Histone methylation levels in treated C4-2B cells, western blot; format: cell-based; settings: treated 2 days
Method: Total cell lysates were obtained by lysing the cell with buffer [50 mM Tris–HCl pH7.5 (Thermo Fisher Scientific, Waltham, MA, USA), 150 mM NaCl (Honeywell International, Inc., Charlotte, NC, USA), 0.5% Triton X-100 (Sigma-Aldrich), 10% glycerol (Honeywell International, Inc.), 1 mM EDTA (Affymetrix Inc.), and cock-tail protease inhibitors] for 15 min on ice, followed by 10 min of sonication cycle (30 s on, 30 s off) on ice. The level of total histone 3 and trimethylated histone H3K9 was analyzed by western blotting using anti-histone 3 (Cell Signaling, Danvers, MA, USA) and anti-H3K9me3 (Millipore, Burlington, MA, USA).
as §2

[3] = cited from earlier work
LNCaP cell = system: LNCaP cell; design: method as in PMID 24971742; settings: cited from earlier work
C4-2B xenografts = experiment: C4-2B xenograft; format: in vivo, Balb/c nu/nu mice
Method: C4-2B cells (1 × 10^6 cells) were suspended in a culture medium and mixed with Matrigel Matrix (BD, Franklin Lakes, NJ, USA). The mixtures were implanted subcutaneously into six- to eight-week-old male Balb/c nu/nu mice. […] Tumor volumes were measured for up to 3 weeks. The tumor volume was calculated using the formula: length × width × height × 0.52. Statistical analysis was conducted as described below. The animal protocols for mice experiments were approved by National Tsing Hua University Institutional Animal Care and Use Committee (approval number: NTHU-IACUC-10478) and carried out under the institutional guidelines with animal welfare standards.
Cells were treated with different concentrations of M or PLGA-M for 24 h, followed by MTT assay. B C4-2B cells (1 × 10^6) were implanted subcutaneously in the hindlimb of nude mice. […] Tumor volumes were measured for up to 3 weeks. Tumor volume was calculated using the formula (length × width × height × 0.52). Statistical significance was evaluated using Student’s t-test. C Representative IHC images of Ki67 and CD31 analysis of xenograft tumor sections from mice treated with vehicle, PLGA-M, Enza, or Enza + PLGA-M. D The proportion of Ki67 + cell was rescored in each field (400 ×) for six random fields in each group of IHC images. CD31 positive vessels in each field (100 ×) were scored for six random fields in each group. Significance was calculated using Student’s t-test. *P < 0.05; **P < 0.01; ***P < 0.001

Compound: O=C(O)c1ccc(O)c(O)c1 [BPRKD063S0, 3,4-dihydroxybenzoic acid]
- IC50 (KDM4A): 0.56 µM

Compound: CN(C)CCCNC(=O)c1ccc(-c2cc(O)c3ncccc3c2)cc1 [ML324]
- inhibitory activity toward JMJD2E/KDM4E (JMJD2E/KDM4E): submicromolar

Compound: O=c1c(O)c(-c2cc(O)c(O)c(O)c2)oc2cc(O)cc(O)c12 [Myricetin, 3,5,7-trihydroxy-2-(3,4,5-trihydroxyphenyl)-4H-chromen-4-one]
- Ki (KDM4B [1]; increasing concentrations of H3K9me3 peptide, read-out: Ki, non-competitive with H3K9me3 peptide, KDM4B): 1.01 µM
- Ki (KDM4B [1]; increasing concentrations of α-KG, Lineweaver–Burk, read-out: Ki, competitive with α-KG, KDM4B): 0.53 µM
- demethylation of H3K9me3 or H3K36me3 by KDM4B (KDM4B [2]): blocked
- IC50 (LNCaP cells): 18.5 ± 0.8 µM
- IC50 (C4-2B): 20.6 ± 0.9 µM
- effect on cell growth (RWPE-1): essentially no effect
- proliferation (CWR22Rv1): significantly reduced
- H3K9me3 level vs untreated cells (C4-2B cells): higher level
- H3K36me3 signal vs untreated cells (C4-2B cells): comparable
- bioavailability through the oral route [3]: poor

Compound: O=[N+]([O-])c1cc([N+](=O)[O-])c(/C=C/c2ccc(Cl)c(Cl)c2)cc1/C=C/c1ccc(Cl)c(Cl)c1 [NSC636819]
- LNCaP cell proliferation (LNCaP cell): strongly inhibits

Compound: O=c1c(O)c(-c2ccc(O)c(O)c2)oc2cc(O)cc(O)c12 [Quercetin, 2-(3,4-dihydroxyphenyl)-3,5,7-trihydroxychromen-4-one]
- IC50 (KDM4B [1]; FDH-coupled assay): 2.4 µM
- KDM4B Relative Activity (%) (KDM4B [1]; FDH-coupled assay, compound concentration not given): 5.3%

Compound: CNC(=O)c1ccc(N2C(=S)N(c3ccc(C#N)c(C(F)(F)F)c3)C(=O)C2(C)C)cc1F [enzalutamide]
- tumor growth vs vehicle at day 13 (C4-2B xenografts; PLGA-M i.p. 20 mg/kg three times a week, Enza oral 12.5 mg/kg five times a week, p = 0.0002): significant impairment of tumor growth
- CD31 in xenografts (IHC) (C4-2B xenografts; vs vehicle group): significantly higher level of CD31 was detected in the vehicle group
- Ki-67 expression in xenografts (IHC) (C4-2B xenografts; vs vehicle group): significantly lower
